Test results reported in patent publication US20240384268A1, “Oligonucleotides” (Hudson Institute of Medical Research, priority 2021, published 2024).

Biological target: T1, TLR8 (Homo sapiens, UniProt Q9NR97)
T1 sequence (Q9NR97 27-1041): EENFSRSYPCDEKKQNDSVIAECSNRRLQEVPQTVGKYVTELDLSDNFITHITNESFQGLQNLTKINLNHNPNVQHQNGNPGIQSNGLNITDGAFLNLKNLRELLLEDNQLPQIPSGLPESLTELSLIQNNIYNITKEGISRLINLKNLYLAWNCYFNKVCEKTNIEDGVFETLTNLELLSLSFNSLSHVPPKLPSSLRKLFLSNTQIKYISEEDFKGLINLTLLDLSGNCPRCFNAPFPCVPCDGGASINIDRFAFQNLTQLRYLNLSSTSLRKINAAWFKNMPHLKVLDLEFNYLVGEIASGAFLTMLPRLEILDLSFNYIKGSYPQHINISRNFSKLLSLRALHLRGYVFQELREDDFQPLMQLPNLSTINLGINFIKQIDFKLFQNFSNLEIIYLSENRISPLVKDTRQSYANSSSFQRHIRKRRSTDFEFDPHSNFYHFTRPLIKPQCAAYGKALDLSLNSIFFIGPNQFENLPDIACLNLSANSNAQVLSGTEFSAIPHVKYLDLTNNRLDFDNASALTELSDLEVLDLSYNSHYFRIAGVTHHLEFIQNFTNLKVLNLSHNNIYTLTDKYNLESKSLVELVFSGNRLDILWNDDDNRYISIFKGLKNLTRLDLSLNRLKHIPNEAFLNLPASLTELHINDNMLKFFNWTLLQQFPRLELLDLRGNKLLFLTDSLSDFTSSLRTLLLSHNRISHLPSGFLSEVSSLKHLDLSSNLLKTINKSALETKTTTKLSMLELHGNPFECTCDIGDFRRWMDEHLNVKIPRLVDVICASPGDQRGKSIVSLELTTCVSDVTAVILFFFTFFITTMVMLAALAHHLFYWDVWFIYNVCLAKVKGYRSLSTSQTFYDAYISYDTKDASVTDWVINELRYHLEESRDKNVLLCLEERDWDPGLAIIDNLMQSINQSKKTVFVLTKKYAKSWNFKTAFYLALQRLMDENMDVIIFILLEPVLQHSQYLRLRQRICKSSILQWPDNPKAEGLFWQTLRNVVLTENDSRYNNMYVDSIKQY
Assay: HEK-TLR8 NF-κB-luciferase reporter, R848 or Motolimod stimulation (potentiation or inhibition)
Format: cell-based
Set-up: expressed in transfected cells; host or cells: 293XLhTLR8 (HEK293)
Conditions: averaged NF-κB-Luciferase relative to R848 condition (fold increase); for TLR8 100 nM: MOE-modified ASO at 100 nM; for TLR8 500 nM: MOE-modified ASO at 500 nM

| Sequence | TLR8 100 nM | TLR8 500 nM |
| --- | --- | --- |
| GTCCTTGCACGTGGCTTCGT (antisense; 2'-MOE modified, pattern not given here) [EGFR-1013 MOE] | 1.900 | 1.593 |
| GTCTTGGCTTCGTGGAGCAG (antisense; 2'-MOE modified, pattern not given here) [MB21D1-520 MOE] | 2.383 | 3.536 |
| GTGTCCTTGCACGTGGCTTC (antisense; 2'-MOE modified, pattern not given here) [EGFR-1015 MOE] | 1.383 | 1.274 |
| GTGTCTTCATCGGCCCTGCC (antisense; 2'-MOE modified, pattern not given here) [CAMSAP1-2113 MOE] | 1.247 | 1.093 |
| TAGGCACTTTGCCTCCTTCT (antisense; 2'-MOE modified, pattern not given here) [EGFR-2859 MOE] | 0.773 | 0.884 |
| TAGTCAAGGGCATATCCTAC (antisense; 2'-MOE modified, pattern not given here) [HPRT-732 MOE] | 1.457 | 2.087 |
| TCAAAGGACTGAGGAAAGGG (antisense; 2'-MOE modified, pattern not given here) [CAMSAP1-6273 MOE] | 3.896 | 3.406 |
| TCCAACACTTCGTGGGGTCC (antisense; 2'-MOE modified, pattern not given here) [HPRT-667 MOE] | 1.142 | 1.432 |
| TCGCACTTCAGTCTGAGCAG (antisense; 2'-MOE modified, pattern not given here) [MB21D1-719 MOE] | 1.697 | 2.158 |
| TGTCCTTGCACGTGGCTTCG (antisense; 2'-MOE modified, pattern not given here) [EGFR-1014 MOE] | 1.187 | 1.433 |
| TGTCTTCATCGGCCCTGCCT (antisense; 2'-MOE modified, pattern not given here) [CAMSAP1-2112 MOE] | 1.331 | 1.178 |
| TGTGATGGCCTCCCATCTCC (antisense; 2'-MOE modified, pattern not given here) [HPRT-332 MOE] | 0.940 | 0.938 |
| TTCTGCAGCTTCCTTGTCCT (antisense; 2'-MOE modified, pattern not given here) [CTNN2B-2136 MOE] | 2.049 | 2.408 |
| TTGCACACTTCGTACCCAAA (antisense; 2'-MOE modified, pattern not given here) [CAMSAP1-4915 MOE] | 1.555 | 1.972 |
| TTGCCATGCTGGCTCGGACT (antisense; 2'-MOE modified, pattern not given here) [CAMSAP1-2584 MOE] | 0.881 | 0.572 |
| TTGGCTCGGCTTGCCTACTT (antisense; 2'-MOE modified, pattern not given here) [CAMSAP1-5594 MOE] | 1.096 | 0.813 |
